In US10851043B1, “Compound for fatty acid synthase inhibition” (KANNUR UNIVERSITY, priority 2019, dated 2020):
Values after ≈ are worked out from the molar mass of the structure shown.

Experiments:
[1] = target: FAS prepared from Saccharomyces cerevisiae (Saccharomyces cerevisiae, UniProt P07149+P19097); details: Li et al. (2002), cited from earlier work
Bacterial FAS II enzyme = experiment: FAS II assay (NADPH oxidation at 340 nm); format: biochemical, Bacillus subtilis; details: for Average ΔC (change in concentration of NADPH): control 0.05037
Method: Crude FAS containing protein fraction was isolated according to the modified protocol of Ahmad et al. (1981). Stock culture of Bacillus subtilis was inoculated in 100 mL LB broth pH 7.2 and cultured for 24 hours at room temperature. It was used for further inoculation of four 1000 mL flasks with same media and culture conditions. The flasks were placed in a rotator shaker to ensure adequate suspension of cells. Bacteria were harvested during the late-exponential phase of growth by centrifugation at 10000×g for 10 minutes and washed twice with 50 mM sodium phosphate buffer (pH 7.0) to provide cell pastes which were stored at -20° C. until use. Frozen cell pastes (25-35 g) were thawed and suspended in 50 mM sodium phosphate buffer (pH 7.0). The cell suspension was disrupted by sonication (12 W, 6×15 pulses with 15 second intervals) in 2 mL Eppendorf tubes containing 1.5 mL of cell suspension, supplemented with lysozyme (250 μg/mL) in a sonicator, operating at maximum power output while maintaining the temperature below 4° C. Unbroken cells and cell debris were removed by centrifugation at 30000×g for 30 minutes at 4° C. The […] were re-suspended in 50 mM sodium phosphate buffer (pH 7.0) and made up to appropriate volume and subjected to ammonium sulphate precipitation. Solid ammonium sulphate was added and the protein precipitate at 40-60% saturation was collected by centrifugation, dialyzed and used for further assay. FAS assay for FAS I enzyme was performed according to a modified process of Li et al. 2002. Crude protein was made up to a concentration of 0.5 mg/mL of protein and used for the assay. Assay was carried out in 96 well plates with the final working volume of 100 μL. […] The microplate was read immediately for 10 minutes at 340 nm. FAS activity was calculated by subtracting the optical density (OD) value obtained after 1 minute from the OD value obtained after 10 minutes. FAS activity was calculated and compared with that of control and test compounds. Dimethyl sulfoxide (DMSO) was taken as control as it was used to dilute the compounds. […] The negative control consisted of protein plus reaction buffer. Another control consisted of buffer reaction without protein. The IC50 was determined by linear regression. FAS activity was determined by the rate of oxidation of NADPH to NADP which was monitored at 340 nm. The change in concentration of NADPH during oxidation was calculated using the following equation: ΔC=ΔA/E Where, ΔC was change in the concentration of NADPH, ΔA was change in absorbance, and E was extinction coefficient of NADPH ([…] nm=6.22 mM^-1·cm^-1). FAS activity was expressed as n mol NADPH oxidized/min/mg protein. Assay using partially purified enzyme from Bacillus subtilis was also performed to verify the FAS II inhibitory activity of compound of Formula II. […] The graph was plotted with change in concentration of NADP to NADPH against time. Each point in graph was the concentration of NADPH measured on a spectrophotometer at 340 nm (FIGS. 6 and 7 for FAS II and FAS I respectively).

[2] = tested on: A549 lung carcinoma cells; experiment: In-vitro anti-proliferative property on cultured A549 cells (MTT assay); format: cell-based; details: for IC50 / viability at 6.25 µg/mL / viability at 12.5 µg/mL / viability at 25 µg/mL / viability at 50 µg/mL / viability at 100 µg/mL: Homo sapiens; for IC50: A549, 24 h, read-out: IC50 anti-proliferative activity against A549 cells; for IC50 / IC50 anti-proliferative activity against A549 cells: MTT; for viability at 6.25 µg/mL / viability at 12.5 µg/mL / viability at 25 µg/mL / viability at 50 µg/mL / viability at 100 µg/mL / Percentage Viability / IC50 anti-proliferative activity against A549 cells: 24 hours; for viability at 6.25 µg/mL / viability at 12.5 µg/mL / viability at 25 µg/mL / viability at 50 µg/mL / viability at 100 µg/mL: read-out: Percentage Viability
Method: A549 lung carcinoma cells were maintained in Dulbecco's modified eagles media (Himedia, India) supplemented with 10% FBS (Invitrogen, India) and grown to confluence at 37° C. and 5% CO2 in a humidified atmosphere using a CO2 incubator (NBS, Eppendorf, Germany). The cells were trypsinized (500 μL of 0.025% trypsin in PBS/0.5 mM EDTA solution (Himedia, India) for 2 minutes and transferred to T flasks under aseptic condition. Test compounds were added to grown cells with a final concentration of 6.25, 12.5, 25, 50, 100 μg/mL from a stock of 1 mg/mL and incubated for 24 hours. The % difference in viability was determined by standard MTT assay (Arung et al. 2000) after 24 hours of incubation. Viability percentage was calculated using the Formula, % viability=(OD of Test/OD of Control)×100

[3] = tested on: FAS I enzyme from bovine liver; experiment: FAS I assay (NADPH oxidation at 340 nm); format: biochemical, Indian water buffalo; details: for Average ΔC (change in concentration of NADPH): control 0.051383
Method: Crude preparation of FAS I enzyme was made according to modified protocol of Dulter et al. (1971). Liver from freshly slaughtered Indian water buffalo was collected and transported in ice bucket and kept at 4° C. till processing. The liver was processed at the earliest by removing connective tissues and sliced into small pieces. Using a blender, about 750 g of liver was minced to form a suspension with 0.05 M potassium phosphate buffer pH 7.4 containing 1 mM EDTA to make up to a volume of 2.5 liters. The thick solution was centrifuged at 7500×g for 20 minutes to remove meat debris and the supernatant obtained was further centrifuged at 30000×g for 30 minutes to get a translucent solution. The supernatant was further diluted to specific volume using 0.05 M Potassium phosphate buffer (pH 7.4) with 1 mM EDTA and brought initially to 10% and then to 40% saturation with solid ammonium sulfate at 4° C. The 40% ammonium sulfate fraction was centrifuged and protein precipitate was re-dissolved in 0.05 mM Tris HCl buffer, pH 7.4, dialyzed against same buffer. The FAS I enzyme was further purified by ion exchange chromatography with Diethylaminoethyl (DEAE) cellulose column as described above (Dulter et al. 1971).
FAS assay for FAS I enzyme was performed according to a modified process of Li et al. 2002. Crude protein was made up to a concentration of 0.5 mg/mL of protein and used for the assay. Assay was carried out in 96 well plates with the final working volume of 100 μL. Compounds to be tested were incubated with previously made crude protein extract for 30 minutes at 25° C. 50 μL of this mixture was added to 50 of reaction mixture containing 1 mM each of malonyl CoA and Nicotinamide adenine dinucleotide phosphate (NADPH), 40 μM acetyl CoA, and 2 mM Dithiothreitol (DTT) in phosphate buffer (250 mM).
The microplate was read immediately for 10 minutes at 340 nm. FAS activity was calculated by subtracting the optical density (OD) value obtained after 1 minute from the OD value obtained after 10 minutes. FAS activity was calculated and compared with that of control and test compounds. Dimethyl sulfoxide (DMSO) was taken as control as it was used to dilute the compounds. […] The negative control consisted of protein plus reaction buffer. Another control consisted of buffer reaction without protein. The IC50 was determined by linear regression. FAS activity was determined by the rate of oxidation of NADPH to NADP which was monitored at 340 nm. The change in concentration of NADPH during oxidation was calculated using the following equation: ΔC=ΔA/E
Where, ΔC was change in the concentration of NADPH, ΔA was change in absorbance, and E was extinction coefficient of NADPH (E340 nm=6.22 mM^−1·cm^−1). FAS activity was expressed as n mol NADPH oxidized/min/mg protein.

[4] = In-vitro cytotoxic effect on cultured L929 cells (MTT assay); format: cell-based; details: mouse
Method: (§1) Cultures of L929 (Fibroblast cells) were maintained in Dulbecco's modified eagles media supplemented with 10% fetal bovine serum (FBS) and grown to confluence at 37° C. and 5% CO2 in a humidified atmosphere using a CO2 incubator. The cells were trypsinised (500 μL of 0.025% Trypsin in PBS/0.5 mM Ethylene diamine tetraacetic acid (EDTA) solution for 2 minutes and passed to T flasks under complete aseptic conditions. Test compounds were added to grown cells at a final concentration of 6.25, 12.5, 25, 50 and 100 μg/mL from a stock of 1 mg/mL and incubated for 24 hours. The percentage difference in viability was determined by standard MTT assay after 24 hours of incubation. The MTT assay is a colorimetric assay for assessing cell metabolic activity. NAD (P) H-dependent cellular oxidoreductase enzymes under defined conditions, reflect the number of viable cells present.
(§2) Viability percentage was calculated using the Formula, % viability=(OD of Test/OD of control)×100, • where control OD was 0.993.

L929 (Fibroblast cells) = experiment: as above; format: cell-based; details: MTT, 24 hours
Method: as §1, §2

FAS prepared from Saccharomyces cerevisiae, sequence (P07149 whole entry): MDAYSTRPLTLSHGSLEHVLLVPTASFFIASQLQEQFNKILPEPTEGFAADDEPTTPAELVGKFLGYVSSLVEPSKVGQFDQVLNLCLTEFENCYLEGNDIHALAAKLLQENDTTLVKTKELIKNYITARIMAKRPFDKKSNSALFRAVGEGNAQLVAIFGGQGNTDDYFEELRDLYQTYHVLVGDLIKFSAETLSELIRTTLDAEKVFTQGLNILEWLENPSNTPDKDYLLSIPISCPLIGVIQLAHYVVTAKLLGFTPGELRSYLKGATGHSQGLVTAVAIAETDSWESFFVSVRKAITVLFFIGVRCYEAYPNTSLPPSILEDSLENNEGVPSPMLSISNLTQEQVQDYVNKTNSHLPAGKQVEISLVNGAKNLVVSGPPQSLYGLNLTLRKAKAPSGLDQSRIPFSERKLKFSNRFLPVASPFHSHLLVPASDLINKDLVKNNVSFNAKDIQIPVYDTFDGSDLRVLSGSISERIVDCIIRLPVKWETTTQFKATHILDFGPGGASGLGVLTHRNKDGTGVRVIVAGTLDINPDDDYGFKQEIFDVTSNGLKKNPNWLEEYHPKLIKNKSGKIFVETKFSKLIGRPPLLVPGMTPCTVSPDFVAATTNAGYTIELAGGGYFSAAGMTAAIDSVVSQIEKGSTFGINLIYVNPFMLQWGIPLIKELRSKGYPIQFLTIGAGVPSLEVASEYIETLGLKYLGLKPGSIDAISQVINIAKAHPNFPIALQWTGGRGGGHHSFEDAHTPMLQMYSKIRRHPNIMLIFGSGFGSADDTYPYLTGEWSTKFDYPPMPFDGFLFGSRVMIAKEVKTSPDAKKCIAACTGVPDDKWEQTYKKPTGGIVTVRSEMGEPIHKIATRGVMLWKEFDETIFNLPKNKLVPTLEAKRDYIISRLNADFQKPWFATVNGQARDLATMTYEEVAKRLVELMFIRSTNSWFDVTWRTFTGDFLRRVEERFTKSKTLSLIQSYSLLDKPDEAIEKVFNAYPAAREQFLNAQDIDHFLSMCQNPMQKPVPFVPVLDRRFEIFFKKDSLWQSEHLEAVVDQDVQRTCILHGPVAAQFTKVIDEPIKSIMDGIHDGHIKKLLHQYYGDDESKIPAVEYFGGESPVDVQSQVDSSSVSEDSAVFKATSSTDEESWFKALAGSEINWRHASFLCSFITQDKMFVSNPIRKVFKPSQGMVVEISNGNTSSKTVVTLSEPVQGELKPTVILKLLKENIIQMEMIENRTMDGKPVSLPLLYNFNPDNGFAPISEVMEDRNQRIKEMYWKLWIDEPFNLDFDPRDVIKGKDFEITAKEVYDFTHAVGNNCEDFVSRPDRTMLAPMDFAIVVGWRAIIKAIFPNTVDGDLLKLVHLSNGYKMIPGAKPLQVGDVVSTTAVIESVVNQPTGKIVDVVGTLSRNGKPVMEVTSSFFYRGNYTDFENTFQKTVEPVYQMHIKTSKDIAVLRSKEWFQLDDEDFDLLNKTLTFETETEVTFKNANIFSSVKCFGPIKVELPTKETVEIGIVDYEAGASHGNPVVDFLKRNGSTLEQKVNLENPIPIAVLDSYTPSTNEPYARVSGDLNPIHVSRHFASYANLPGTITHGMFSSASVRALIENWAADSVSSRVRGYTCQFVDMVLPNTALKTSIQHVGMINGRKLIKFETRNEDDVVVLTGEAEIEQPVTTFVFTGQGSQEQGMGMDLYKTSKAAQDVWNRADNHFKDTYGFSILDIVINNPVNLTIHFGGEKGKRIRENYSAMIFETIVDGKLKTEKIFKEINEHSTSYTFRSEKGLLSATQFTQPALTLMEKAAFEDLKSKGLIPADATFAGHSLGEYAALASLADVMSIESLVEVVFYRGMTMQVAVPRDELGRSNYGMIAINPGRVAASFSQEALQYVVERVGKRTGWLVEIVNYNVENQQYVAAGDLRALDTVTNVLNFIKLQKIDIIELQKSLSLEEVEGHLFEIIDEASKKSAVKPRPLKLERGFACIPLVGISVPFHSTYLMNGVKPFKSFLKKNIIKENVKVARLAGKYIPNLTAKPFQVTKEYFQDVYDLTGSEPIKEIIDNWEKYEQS
FAS prepared from Saccharomyces cerevisiae, sequence (P19097 whole entry): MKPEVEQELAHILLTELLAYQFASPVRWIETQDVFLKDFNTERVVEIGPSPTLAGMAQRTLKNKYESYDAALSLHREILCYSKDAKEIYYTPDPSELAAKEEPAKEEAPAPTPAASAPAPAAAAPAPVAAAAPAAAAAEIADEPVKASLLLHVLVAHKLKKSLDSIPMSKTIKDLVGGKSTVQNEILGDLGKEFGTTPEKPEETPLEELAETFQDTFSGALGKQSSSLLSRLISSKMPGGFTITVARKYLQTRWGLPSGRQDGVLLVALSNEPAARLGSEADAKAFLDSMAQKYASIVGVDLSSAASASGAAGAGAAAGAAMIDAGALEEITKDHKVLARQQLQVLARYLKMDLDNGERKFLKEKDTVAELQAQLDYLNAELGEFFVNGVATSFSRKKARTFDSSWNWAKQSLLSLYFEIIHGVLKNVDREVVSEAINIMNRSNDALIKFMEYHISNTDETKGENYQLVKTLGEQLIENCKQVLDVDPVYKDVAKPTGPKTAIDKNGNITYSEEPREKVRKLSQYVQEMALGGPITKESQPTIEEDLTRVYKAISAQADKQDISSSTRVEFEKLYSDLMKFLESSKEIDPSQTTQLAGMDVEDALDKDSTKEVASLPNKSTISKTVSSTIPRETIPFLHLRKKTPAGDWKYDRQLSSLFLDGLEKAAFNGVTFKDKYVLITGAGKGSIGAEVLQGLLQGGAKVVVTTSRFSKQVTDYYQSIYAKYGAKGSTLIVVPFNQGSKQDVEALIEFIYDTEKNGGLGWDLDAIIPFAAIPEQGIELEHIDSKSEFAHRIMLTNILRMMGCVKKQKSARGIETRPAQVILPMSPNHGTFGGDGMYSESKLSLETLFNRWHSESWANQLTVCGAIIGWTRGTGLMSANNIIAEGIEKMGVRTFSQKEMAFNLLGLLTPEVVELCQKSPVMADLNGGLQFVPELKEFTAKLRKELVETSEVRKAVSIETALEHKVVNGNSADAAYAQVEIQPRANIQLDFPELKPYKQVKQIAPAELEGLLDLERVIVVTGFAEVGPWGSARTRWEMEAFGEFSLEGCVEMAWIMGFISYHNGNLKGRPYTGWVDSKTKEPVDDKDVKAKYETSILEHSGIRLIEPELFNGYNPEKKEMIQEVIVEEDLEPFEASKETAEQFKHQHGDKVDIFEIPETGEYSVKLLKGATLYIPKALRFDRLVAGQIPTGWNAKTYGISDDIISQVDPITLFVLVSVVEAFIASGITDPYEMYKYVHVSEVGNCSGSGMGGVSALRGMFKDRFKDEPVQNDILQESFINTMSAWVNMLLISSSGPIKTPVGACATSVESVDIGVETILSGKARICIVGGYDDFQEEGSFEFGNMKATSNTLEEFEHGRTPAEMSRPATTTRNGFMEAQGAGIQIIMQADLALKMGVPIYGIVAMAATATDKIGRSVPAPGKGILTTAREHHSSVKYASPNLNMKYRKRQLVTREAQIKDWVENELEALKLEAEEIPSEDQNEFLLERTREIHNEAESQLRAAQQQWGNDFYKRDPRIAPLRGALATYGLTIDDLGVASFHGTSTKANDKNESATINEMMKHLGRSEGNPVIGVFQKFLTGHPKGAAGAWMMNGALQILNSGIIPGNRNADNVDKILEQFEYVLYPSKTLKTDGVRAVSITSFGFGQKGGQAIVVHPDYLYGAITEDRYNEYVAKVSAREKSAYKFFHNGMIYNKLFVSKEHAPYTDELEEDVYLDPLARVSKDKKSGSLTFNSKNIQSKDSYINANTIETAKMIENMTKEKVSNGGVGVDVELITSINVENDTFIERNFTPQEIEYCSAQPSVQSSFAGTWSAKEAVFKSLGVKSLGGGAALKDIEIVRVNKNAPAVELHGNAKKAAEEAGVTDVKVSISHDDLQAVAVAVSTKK

Row | SMILES | Inhibition compared to control (Bacterial FAS II enzyme) [%] | Average ΔC (change in concentration of NADPH) (Bacterial FAS II enzyme) | IC50 [2] [µg/mL] | viability at 6.25 µg/mL ([2]; A549, 6.25 μg/mL) [%] | viability at 12.5 µg/mL ([2]; A549, 12.5 μg/mL) [%] | viability at 25 µg/mL ([2]; A549, 25 μg/mL) [%] | viability at 50 µg/mL ([2]; A549, 50 μg/mL) [%] | viability at 100 µg/mL ([2]; A549, 100 μg/mL) [%] | Inhibition compared to control [3] [%] | Average ΔC (change in concentration of NADPH) [3] | IC50 anti-proliferative activity against A549 cells [2] [µg/mL] | other results
1 | O=Cc1cc(-c2coc3cc(O)cc(O)c3c2=O)ccc1O [3′-Formylgenistein] |  |  |  |  |  |  |  |  |  |  |  | IC50 ([1]; read-out: IC50 against FAS (converted)): 7.71 µM
2 | C/C=C/C/C=C/CCC(=O)[C@H]1O[C@H]1C(N)=O [Cerulenin] | 21.48 | 0.03955 | 86.4 (≈ 387 µM) | 100 | 96.9 | 72 | 62.2 | 48.1 | 36.49 | 0.03248 |  | 
3 | C=C1C(=O)OC(CCCCCCCC)C1C(=O)O (stereo not drawn) [C75] | 15.67 | 0.04248 |  |  |  |  |  |  | 29.60 | 0.03612 | 99.034 (≈ 389 µM) | Percentage Viability ([2]; A549, 6.25 μg/mL): 100.0%; Percentage Viability ([2]; A549, 12.5 μg/mL): 100.0%; Percentage Viability ([2]; A549, 25 μg/mL): 80.110%; Percentage Viability ([2]; A549, 50 μg/mL): 66.483%; Percentage Viability ([2]; A549, 100 μg/mL): 55.985%
4 | C[C@@H]1O[C@@H](Oc2cc3c(=O)oc4c(O)c(O)cc5c(=O)oc(c2O)c3c45)[C@H](O)[C@H](O)[C@H]1O [ellagic acid 4-O-alpha-1-rhamnopyranoside] |  |  |  |  |  |  |  |  |  |  |  | IC50 against FAS [1]: 7.5 microgram/mL
5 | CC(C)[C@H](O)C(=O)/C(O)=C/[C@@H](N)/C=C\CCCC[C@H]1C=C[C@@H](O)C=C1 [Compound of Formula II, (3S,5Z,7S,8Z)-7-amino-3,5-dihydroxy-2-methyl-13-[(1s,4s)-4-hydroxycyclohexa-2,5-dien-1-yl]trideca-5,8-dien-4-one] | 30.54 | 0.03498 | 74 to 78 | 92.3 | 89.7 | 67.4 | 55.7 | 42.6 | 41.49 | 0.03006 | 76.034 | viability at 24 h, 6.25 μg/mL [4]: 90.8%; viability at 24 h, 12.5 μg/mL [4]: 85.8%; viability at 24 h, 25 μg/mL [4]: 74.7%; viability at 24 h, 50 μg/mL [4]: 64.3%; viability at 24 h, 100 μg/mL [4]: 55.8%; LD50 against L929 cell lines (L929 (Fibroblast cells)): about 89.65 μg/mL
